According to publication doi:10.1101/810010v1 (biorxiv, 2019):

Molecular target: Syt1 C2B (Mus musculus, UniProt P46096)
Assay: […]-1H HSQC NMR titration, global fit of chemical shifts, single-site model
Type: binding

Syt1 C2B, sequence (P46096 271-421): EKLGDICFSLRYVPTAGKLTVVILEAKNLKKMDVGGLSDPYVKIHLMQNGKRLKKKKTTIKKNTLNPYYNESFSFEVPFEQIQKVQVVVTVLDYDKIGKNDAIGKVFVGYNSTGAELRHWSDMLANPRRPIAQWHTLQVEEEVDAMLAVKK

Kd: 215 ± 16 µM
Structure (SMILES): CCCC(=O)OC[C@H](COP(=O)(O)O[C@@H]1[C@H](O)[C@H](O)[C@@H](OP(=O)(O)O)[C@H](OP(=O)(O)O)[C@H]1O)OC(=O)CCC [di-C4-PtdIns(4,5)P2]
